Results: the NIST ThermoML archive (doi:10.1016/j.jct.2018.12.009)
± gives the expanded uncertainty stated by the source.

Conditions: for vapor or sublimation pressure: Liquid, Closed cell (Static) method; for mass density: Fluid (supercritical or subcritical phases), isochoric method

CC(C)O [propan-2-ol]
Conditions | vapor or sublimation pressure [kPa]
301.24 K | 7 ± 1
314.26 K | 15 ± 1
314.29 K | 15 ± 1
314.52 K | 15 ± 1
314.8 K | 16 ± 1
315.05 K | 16 ± 1
315.3 K | 16 ± 1
315.42 K | 16 ± 1
315.61 K | 16 ± 1
315.8 K | 17 ± 1
341.91 K | 57 ± 1
342.03 K | 57 ± 1
342.08 K | 57 ± 1
342.2 K | 57 ± 1
342.32 K | 58 ± 1
342.49 K | 58 ± 1
342.67 K | 58 ± 1
342.79 K | 59 ± 1
342.91 K | 59 ± 1
343.03 K | 59 ± 1
369.05 K | 169 ± 2
369.13 K | 169 ± 2
369.16 K | 169 ± 2
369.28 K | 170 ± 2
369.39 K | 171 ± 2
369.5 K | 171 ± 2
369.67 K | 172 ± 2
369.84 K | 173 ± 2
369.96 K | 174 ± 2
370.07 K | 175 ± 2
391.32 K | 358 ± 4
391.5 K | 360 ± 4
391.53 K | 360 ± 4
391.54 K | 360 ± 4
391.65 K | 362 ± 4
391.76 K | 363 ± 4
391.87 K | 364 ± 4
391.98 K | 366 ± 4
392.09 K | 367 ± 4
392.2 K | 368 ± 4
416.55 K | 732 ± 7
416.65 K | 734 ± 7
416.73 K | 736 ± 7
416.76 K | 736 ± 7
416.86 K | 739 ± 8
416.97 K | 741 ± 8
417.08 K | 743 ± 8
417.18 K | 745 ± 8
417.29 K | 747 ± 8
417.4 K | 749 ± 8
417.5 K | 756 ± 8
442.12 K | 1367 ± 14
442.14 K | 1368 ± 14
442.23 K | 1371 ± 14
442.33 K | 1374 ± 14
442.43 K | 1377 ± 14
442.54 K | 1381 ± 14
442.64 K | 1383 ± 14
442.74 K | 1386 ± 14
442.85 K | 1389 ± 14
463.48 K | 2136 ± 22
463.56 K | 2140 ± 22
463.58 K | 2141 ± 22
463.78 K | 2149 ± 22
463.83 K | 2152 ± 22
463.97 K | 2158 ± 22
464.18 K | 2166 ± 22
464.27 K | 2171 ± 22
464.42 K | 2177 ± 22
464.97 K | 2201 ± 22
465.27 K | 2213 ± 22
465.34 K | 2217 ± 22
468.1 K | 2330 ± 24
482.51 K | 3081 ± 31
482.6 K | 3085 ± 31
482.7 K | 3089 ± 31
482.72 K | 3090 ± 31
482.8 K | 3093 ± 31
482.89 K | 3098 ± 31
482.99 K | 3102 ± 31
483.09 K | 3106 ± 31
483.18 K | 3110 ± 31
500.85 K | 4213 ± 43
500.95 K | 4219 ± 43
501.04 K | 4224 ± 43
501.08 K | 4226 ± 43
501.14 K | 4229 ± 43
501.23 K | 4235 ± 43
501.33 K | 4240 ± 43
501.42 K | 4245 ± 43
501.53 K | 4251 ± 43
501.62 K | 4256 ± 43
501.81 K | 4267 ± 43
501.9 K | 4272 ± 43
503.92 K | 4428 ± 45
504.02 K | 4438 ± 45
504.03 K | 4436 ± 45
504.11 K | 4366 ± 45
504.31 K | 4456 ± 45
504.5 K | 4470 ± 45
504.59 K | 4477 ± 45
504.98 K | 4504 ± 46
505.06 K | 4521 ± 46
505.08 K | 4522 ± 46
505.27 K | 4536 ± 46
505.37 K | 4544 ± 46
506.43 K | 4667 ± 47
506.53 K | 4675 ± 47
506.61 K | 4648 ± 47
506.62 K | 4682 ± 47
506.72 K | 4690 ± 47
506.82 K | 4697 ± 48
506.96 K | 4708 ± 48
506.97 K | 4709 ± 48
507.11 K | 4720 ± 48
507.2 K | 4727 ± 48
507.3 K | 4735 ± 48
507.4 K | 4743 ± 48
507.5 K | 4750 ± 48
507.59 K | 4757 ± 48
507.69 K | 4765 ± 48
507.79 K | 4773 ± 48
507.89 K | 4781 ± 48
508.04 K | 4793 ± 49
508.16 K | 4803 ± 49

Conditions | mass density [kg/m3]
508.16 K, 4803 kPa | 329.2 ± 0.7
508.18 K, 4804 kPa | 329.2 ± 0.7
508.28 K, 4813 kPa | 329.2 ± 0.7
508.37 K, 4822 kPa | 329.2 ± 0.7
508.47 K, 4831 kPa | 329.2 ± 0.7
508.57 K, 4840 kPa | 329.2 ± 0.7
508.67 K, 4849 kPa | 329.2 ± 0.7
508.76 K, 4858 kPa | 329.2 ± 0.7
509.35 K, 4911 kPa | 329.2 ± 0.7
509.45 K, 4920 kPa | 329.2 ± 0.7
509.5 K, 5095 kPa | 329.2 ± 0.7
509.55 K, 4929 kPa | 329.2 ± 0.7
509.64 K, 4938 kPa | 329.2 ± 0.7
509.79 K, 4951 kPa | 329.2 ± 0.7
509.99 K, 4967 kPa | 329.2 ± 0.7
510.14 K, 4981 kPa | 329.2 ± 0.7
510.23 K, 4990 kPa | 329.2 ± 0.7
510.33 K, 4999 kPa | 329.2 ± 0.7
510.48 K, 5012 kPa | 329.2 ± 0.7
510.93 K, 5271 kPa | 329.2 ± 0.7
516.9 K, 5603 kPa | 329.2 ± 0.7
516.99 K, 5611 kPa | 329.2 ± 0.7
517.08 K, 5619 kPa | 329.2 ± 0.7
517.27 K, 5637 kPa | 329.2 ± 0.7
521.87 K, 6056 kPa | 329.2 ± 0.7
521.96 K, 6064 kPa | 329.2 ± 0.7
522.14 K, 6080 kPa | 329.2 ± 0.7
522.33 K, 6397 kPa | 329.2 ± 0.7
522.42 K, 6405 kPa | 329.2 ± 0.7
522.51 K, 6414 kPa | 329.2 ± 0.7
522.6 K, 6495 kPa | 329.2 ± 0.7
